Source: US4317824A, “Derivatives of quinoxaline-1,4-dioxides” (Abic, Ltd., priority 1976, dated 1982)
Converted amounts (≈) assume the structure as drawn.

How the values were obtained:
[1] = in vivo; conditions: mouse, po
[2] = Acute oral LD50 in chicks; conditions: chicken, in vivo
[3] = growth promotion experiment with male turkeys for 4 weeks; format: in vivo; conditions: 50 g/ton in the feed, P<0.001
Source text: The results were statistically significant (P<0.001).

[4] = tested on: Staph. Aur.; assay: antimicrobial activity, minimal inhibitory concentration, Staph. Aur.; format: cell-based
Method: (§1) The antimicrobial activity of some compounds according to the present invention was measured and the results are shown in the following Tables. The activity is indicated as the minimal inhibitory concentration in μg/ml.

[5] = tested on: B. Subtilis; assay: antimicrobial activity, minimal inhibitory concentration, B. Subtilis; format: cell-based; conditions: Bacillus subtilis
Method: as §1

[6] = tested on: Trichophyt. Rubrum; assay: antimicrobial activity, minimal inhibitory concentration, Trichophyt. Rubrum; format: cell-based
Method: as §1

[7] = tested on: E. Coli; assay: antimicrobial activity, minimal inhibitory concentration, E. Coli; format: cell-based; conditions: Escherichia coli
Method: as §1

[8] = tested on: Salm. Typh.; assay: antimicrobial activity, minimal inhibitory concentration, Salm. Typh.; format: cell-based; conditions: read-out: minimal inhibitory concentration
Method: as §1

[9] = tested on: Proteus; assay: antimicrobial activity, minimal inhibitory concentration, Proteus; format: cell-based
Method: as §1

[10] = tested on: E. Coli; assay: Systemic E. Coli infection in mice; format: in vivo; conditions: systemic E. Coli infection, 2,5 mg × 2 per day
Method: (§2) Some compounds of general formula Id were tested also in vivo.

[11] = tested on: B. Cereus; assay: antimicrobial activity, minimal inhibitory concentration, B. Cereus; format: cell-based; conditions: Bacillus cereus
Method: as §1

[12] = tested on: St. aur; assay: Systemic St. aur infection in mice; format: in vivo
Method: as §2

[13] = tested on: Crypt. Neof.; assay: antimicrobial activity, minimal inhibitory concentration, Crypt. Neof.; format: cell-based
Method: as §1

[14] = tested on: Cand. Alb.; assay: antimicrobial activity, minimal inhibitory concentration, Cand. Alb.; format: cell-based
Method: as §1

[15] = tested on: Shig. Flex.; assay: antimicrobial activity, minimal inhibitory concentration, Shig. Flex.; format: cell-based
Method: as §1

[16] = tested on: E. Coli; assay: E. Coli infections chick; format: in vivo; conditions: 50 mg/kg
Method: as §2

[17] = tested on: Mycoplasma gallisept; assay: antimicrobial activity, minimal inhibitory concentration, Mycoplasma gallisept; format: cell-based
Method: as §1

[18] = tested on: Pseud. Aur.; assay: antimicrobial activity, minimal inhibitory concentration, Pseud. Aur.; format: cell-based
Method: as §1

[19] = tested on: E. Coli; assay: U. Tract infections in mice (E. Coli); format: in vivo; conditions: U. Tract infections (E. Coli), 2,5 mg × 10 days
Method: as §2

[20] = tested on: Aspergillus Niger; assay: antimicrobial activity, minimal inhibitory concentration, Aspergillus Niger; format: cell-based
Method: as §1

[21] = systemic St. aur infection, 2,5 mg × 2 per day

| SMILES | MIC [4] | MIC [5] | MIC [6] | MIC [7] | MIC [8] | MIC [11] | MIC [13] | MIC [14] | MIC [15] | also measured |
| --- | --- | --- | --- | --- | --- | --- | --- | --- | --- | --- |
| [O-][n+]1cc(C(=NO)NN2CCOCC2)[n+]([O-])c2ccccc21 [Example 25, 2-(N-morpholinoamino)-carboxamidoxime-quinoxaline-1,4-dioxide] |  |  |  |  |  |  |  |  |  | LD50 [1]: 1240 mg/kg; LD50 [2]: 428 mg/kg |
| CN1CCN(C(=NO)c2c[n+]([O-])c3ccccc3[n+]2[O-])CC1 [Example 26a, 2-(4'-methyl-piperazino)-carboxaldoxime-quinoxaline-1,4-dioxide] |  |  |  |  |  |  |  |  |  | increase in weight gain [3]: 15.6%; LD50 [1]: 1240 mg/kg; LD50 [2]: 400 mg/kg |
| [O-][n+]1cc(C(=NO)NN2CCOCC2)[n+]([O-])c2ccccc21 [drawing 5] | 11 to 100 mg/L (≈ 36 to 328 µM) | 11 to 100 mg/L (≈ 36 to 328 µM) | 1 mg/L (≈ 3.28 µM) |  |  |  |  |  |  |  |
| CC(=O)NNC(=NO)c1c[n+]([O-])c2ccccc2[n+]1[O-] [Example 24, 2-N-(acetyl-hydrazino)-carboxaldoxime-quinoxaline-1,4-dioxide] | 10 mg/L (≈ 36.1 µM) |  | 11 to 100 mg/L (≈ 39.7 to 361 µM) | 11 to 100 mg/L (≈ 39.7 to 361 µM) | 11 to 100 mg/L (≈ 39.7 to 361 µM) | 11 to 100 mg/L (≈ 39.7 to 361 µM) |  |  |  | MIC [9]: 11 to 100 mg/L (≈ 39.7 to 361 µM); Protection [10]: + (indicates protection >80%); Protection [12, 21]: + (indicates protection >80%) |
| CC(=O)ON=C(Cl)c1c[n+]([O-])c2ccc(Cl)cc2[n+]1[O-] [Example 11, 2-[α-chloro-(0-acetyl)-carboxaldoxime]-7-chloro-quinoxaline-1,4-dioxide] | 11 to 100 mg/L (≈ 34.8 to 316 µM) | 11 to 100 mg/L (≈ 34.8 to 316 µM) | 2 mg/L (≈ 6.33 µM) |  |  |  | 2 mg/L (≈ 6.33 µM) | 1 mg/L (≈ 3.16 µM) | 11 to 100 mg/L (≈ 34.8 to 316 µM) |  |
| CCOC(=NO)c1c[n+]([O-])c2ccccc2[n+]1[O-] [Example 17 (ethoxy), 2-(α-ethoxy)-carboxaldoxime-quinoxaline-1,4 dioxide] | 10 mg/L (≈ 40.1 µM) | 11 to 100 mg/L (≈ 44.1 to 401 µM) |  | 11 to 100 mg/L (≈ 44.1 to 401 µM) | 11 to 100 mg/L (≈ 44.1 to 401 µM) |  |  |  | 11 to 100 mg/L (≈ 44.1 to 401 µM) |  |
| CCC(=O)ON=C(Cl)c1c[n+]([O-])c2ccccc2[n+]1[O-] [Y = H, R = CH2CH3] | 10 mg/L (≈ 33.8 µM) | 11 to 100 mg/L (≈ 37.2 to 338 µM) |  | 25 mg/L (≈ 84.6 µM) | 25 mg/L (≈ 84.6 µM) | 25 mg/L (≈ 84.6 µM) |  |  | 11 to 100 mg/L (≈ 37.2 to 338 µM) |  |
| CNC(=NO)c1c[n+]([O-])c2ccccc2[n+]1[O-] [Example 18 (methylamino), 2-(N-methylamino)-carboxaldoxime-quinoxaline-1,4-dioxide] | 10 mg/L (≈ 42.7 µM) |  |  | 25 mg/L (≈ 107 µM) | 25 mg/L (≈ 107 µM) | 25 mg/L (≈ 107 µM) |  |  |  | MIC [9]: 11 to 100 mg/L (≈ 47 to 427 µM); Protection [16]: + (indicates protection >80%); Protection [10]: + (indicates protection >80%); Protection [12, 21]: + (indicates protection >80%); MIC [17]: 10 to 20 mg/L (≈ 42.7 to 85.4 µM) |
| Cc1ccc2c(c1)[n+]([O-])c(C(Cl)=NO)c[n+]2[O-] [Example 7, 2-(α-chloro)-carboxaldoxime-7-methyl-quinoxaline-1,4-dioxide] | 25 mg/L (≈ 98.6 µM) | 11 to 100 mg/L (≈ 43.4 to 394 µM) | 25 mg/L (≈ 98.6 µM) | 25 mg/L (≈ 98.6 µM) |  | 25 mg/L (≈ 98.6 µM) | 50 mg/L (≈ 197 µM) | 25 mg/L (≈ 98.6 µM) | 11 to 100 mg/L (≈ 43.4 to 394 µM) |  |
| CCC(=O)ON=C(Cl)c1c[n+]([O-])c2ccc(Cl)cc2[n+]1[O-] [Example 10, 2-(α-chloro-0-propionyl)-carboxaldoxime-7-chloro-quinoxaline-1,4-dioxide] | 11 to 100 mg/L (≈ 33.3 to 303 µM) | 11 to 100 mg/L (≈ 33.3 to 303 µM) | 1 mg/L (≈ 3.03 µM) |  |  |  | 1 mg/L (≈ 3.03 µM) | 1 mg/L (≈ 3.03 µM) |  |  |
| CCCNC(=NO)c1c[n+]([O-])c2ccccc2[n+]1[O-] [Example 20, 2-(propylamino)-carboxamidoxime-quinoxaline-1,4-dioxide] | 10 mg/L (≈ 38.1 µM) |  | 11 to 100 mg/L (≈ 41.9 to 381 µM) | 25 mg/L (≈ 95.3 µM) | 25 mg/L (≈ 95.3 µM) | 25 mg/L (≈ 95.3 µM) | 11 to 100 mg/L (≈ 41.9 to 381 µM) | 11 to 100 mg/L (≈ 41.9 to 381 µM) |  | MIC [18]: 10 mg/L (≈ 38.1 µM); MIC [9]: 11 to 100 mg/L (≈ 41.9 to 381 µM); Protection [19]: + (indicates protection >80%); Protection [10]: + (indicates protection >80%); MIC [20]: 11 to 100 mg/L (≈ 41.9 to 381 µM); Protection ([12]; systemic St. aur infection, 5 mg × 2 per day): - (indicates protection <50%); MIC [17]: 25 to 50 mg/L (≈ 95.3 to 191 µM) |
| CCN(CC)C(=NO)c1c[n+]([O-])c2ccccc2[n+]1[O-] [Example 22, 2-(N-diethylamino)-carboxaldoxime-quinoxaline-1,4-dioxide] | 11 to 100 mg/L (≈ 39.8 to 362 µM) |  |  | 50 mg/L (≈ 181 µM) | 50 mg/L (≈ 181 µM) | 11 to 100 mg/L (≈ 39.8 to 362 µM) |  |  |  | MIC [18]: 10 mg/L (≈ 36.2 µM) |
